Results on six compounds are retold here after article PMC6379104 (Clinical pharmacology and therapeutics, 2018).

In series [1] the test system is latent HIV in Bcl-2-transduced primary CD4+ T cells. Particulars: cited from earlier work.
Series [2] deals with plasma HIV RNA. Format: in vivo, HIV-1.
The test system of series [3] is plasma HIV RNA. Particulars: three consecutive days of DSF; cited from earlier work.
Series [4] deals with cell-associated unspliced (CA-US) HIV RNA. The format is in vivo, HIV-1.
For series [5] the following is noted: in humans; cited from earlier work.
Series [6] has as its system cell-associated unspliced (CA-US) HIV RNA. Conditions: three consecutive days of DSF at all doses (500, 1000, 2000 mg); cited from earlier work.
Series [7] relates to plasma HIV RNA. Particulars: DSF 500 mg for 14 days; cited from earlier work.
Another series deals with cell-associated HIV DNA. Conditions: three consecutive days of DSF; cited from earlier work.
A short description of a further series: clinical. Conditions: human, in vivo.
Series [8] in a line: Population pharmacokinetic model of plasma disulfiram and four metabolites.
The test system of a further series is CA-US HIV RNA. Particulars: following administration of vorinostat; cited from earlier work.
Series [9] concerns plasma HIV RNA. Conditions: following administration of vorinostat; cited from earlier work.
Setting [10] is: model estimate at AUC0–72 of 2270 mg*h/L (500 mg dose group median).
The mark [11] stands for this setting: final PK model, estimate (RSE %).

Where “and” joins values, the source holds several entries; their conditions need not be identical. Equal entries are not always repeated. Where two headings read alike, the source gives them in different places.

As a reminder, the Emax is the greatest response seen or fitted, relative to the assay's reference. The term Km denotes the substrate concentration at which the rate is half of its maximum. Take `CCN(CC)C(=S)SSC(=S)N(CC)CC` [DSF, Disulfiram]: the “activation of latent HIV in vitro” value in series [1] was “reactivated latent HIV”. Moreover, the “median change in plasma HIV RNA” value with plasma HIV RNA [2] (by day 31, 2000 mg group) is given as 1.17 copies/mL. The “median change in plasma HIV RNA” value in the series on plasma HIV RNA [2] (during the treatment dosing period, 500 mg group) was -0.22 copies/mL. Besides, the “exposure-response between AUC0–72 and plasma HIV RNA” value in the series with plasma HIV RNA [2] (negative binomial regression models) is listed as “a statistically significant exposure-response was not observed”. The “change in plasma HIV RNA” value with plasma HIV RNA [3] was “increased, but only at day 31 and only in participants receiving the highest dose (2000 mg)”. In series [4] (exposure-response of AUC0–72 on CA-US HIV RNA), this compound gave an AUC50 of 1600 µg·h/L. In [4] (increase in CA-US HIV RNA), this compound came in with an Emax of 78%. Besides, the “Emax (fraction increase)” value in series [4] (increase in CA-US HIV-1 RNA, estimate (RSE %)) is recorded as 78 (13.6). Moreover, in [4] (setting [10]), the “potential participants achieving >90% of Emax” value was “over 70%” and the “potential participants achieving less than a third of Emax” value was 15%. The “potential participants achieving >98% of Emax” value in series [4] (model estimate at AUC0–72 of 3883 mg*h/L (lowest in 1000 mg dose group)) was 95%. Further, in series [4] (negative binomial PK/PD models, all three baseline values), the “exposure-response relationship of AUC0–72 on CA-US RNA” value is “statistically significant exposure-response relationship”. Also, the estimated half-life result in series [5] is listed as “about 7 hours”. Also, the “change in CA-US RNA” value in series [6] is given as “statistically significant dose-dependent increases”. Also, the “change in plasma HIV RNA” value with plasma HIV RNA [7] was “transient but non-statistically significant increases”. Further, the “change in CA-DNA” value in the series with cell-associated HIV DNA was “no significant differences”. Moreover, the Km in the series “clinical” came to 0.217 µg/mL. Besides, in [8] (3 consecutive daily doses), the “time by which drug was completely eliminated” value was ≤ 72 h. In addition, in [8] (setting [11]), the “BV (%) in CL/F (between-subject variability)” value was 36% and 36 (14) %; the “V (volume of distribution)” value is 1.29 (9.1) L. Further, the Vd in series [8] (human, plasma, oral, V (volume of distribution), final PK model, estimate (RSE %)) was 1.3 L.

As to `CCN(CC)C(=S)SC` [M2, diethyldithiocarbamate-methyl ester], the “activation of latent HIV in vitro” value in [1] is given as “but not M2 (DDTC-Me), reactivated latent HIV”. In addition, in series [8] (setting [11]), the “Q (flow from central compartment to periphery)” value is given as 0.0776 (14.0), the “V (volume of distribution)” value is 0.00404 (8.0) L and the “Vperiph (calculated peripheral volume)” value is on record as 28.9 (17.3) L.

`O=C(CCCCCCC(=O)Nc1ccccc1)NO` [vorinostat]: the “change in CA-US HIV RNA” value in the series on CA-US HIV RNA is “significant increases”. The “change in plasma HIV RNA” value with plasma HIV RNA [9] is listed as “a significant change in plasma HIV RNA was not observed”.

Regarding `CCN(CC)C(=O)SC[C@H](NC(=O)CC[C@H](N)C(=O)O)C(=O)NCC(=O)O` [M4, carbamathione], in series [8] (setting [11]), the “Km (Michaelis-Menten constant, concentration at which elimination is half maximal)” value is recorded as 543 (4.3) ng/mL and the “V (volume of distribution)” value is 0.581 (10.3) L.

As to `CCN(CC)C(=O)[S+](C)[O-]` (stereo not drawn) [M3, S-methyl-N,N-diethylthiolcarbamate sulfoxide], the “V (volume of distribution)” value in series [8] (setting [11]) is 0.0647 (15.6) L.

Turning to `CCN(CC)C(=S)S` [M1, N,N-diethyldithiocarbamate], in series [1], the “activation of latent HIV in vitro” value is recorded as “reactivated latent HIV”. In [8] (setting [11]), the “Km (Michaelis-Menten constant, concentration at which elimination is half maximal)” value is on record as 480 (6.2) ng/mL and the “V (volume of distribution)” value is reported as 0.0906 (16.6) L.
